Experimental data taken from article PMC12428754, “Testing Strategies for Metabolite-Mediated Neurotoxicity” (International Journal of Molecular Sciences, 2025).
Read-outs that look alike come from different tables or passages of the source.

Legend:
LUHMES cells = experiment: MitoMet (UKN4b) neurite outgrowth assay; type: cell-based, human; details: for IC25: benchmark response 25%, neurite area, 24 h exposure, three independent experiments, read-out: BMC25 neurite outgrowth
Method: Figure 1 (A) A strategy scheme to assess metabolite-mediated hazard in NAMs used for neurotoxicity or developmental neurotoxicity. Parent and metabolite compounds are tested separately in the respective assay. This strategy is applicable when there is prior knowledge of metabolite formation. A decision rule based on the relative toxicities (X) of the parent and metabolite may be applied to decide whether next-generation risk assessment (NGRA) should be applied to the metabolite. The value of X may be defined according to the problem formulation and the NAM used. (B) An assay scheme of the neurite outgrowth assay used here for exemplification: Proliferating LUHMES cells were replated one day before differentiation was initiated (day −1). After two days (day 2) in differentiation medium, the cells were replated into assay format (96-well). At this point, neurite growth was re-initiated. The cells were treated with toxicants 1 h after replating. Neurite outgrowth and viability were determined 24 h later, using automated high content imaging. (C) Comparison of neurite outgrowth of cultures treated with bromethalin and desmethyl-bromethalin one exemplary parent/metabolite pair (chemical structures shown). […] The curves are based on data from three independent experiments and were fitted using a four-parameter Hill function. Data points shown are arithmetic means of data from independent experiments ±SEM. In each independent experiment, the technical replicates were measured and averaged. A benchmark response (BMR) of 25% was used as specified in the detailed assay description, and the respective benchmark concentration (BMC25) was determined. […] (D) Microscopic images of calcein-stained LUHMES cells. Similar images are used for neurite quantification. Treatment with 40 nM of the parent (left) or metabolite (right). The scale bar in orange corresponds to 50 µm. […] It stands under panel C and to the right of panel D, and was assigned to C.
The MitoMet neurite outgrowth assay was performed as previously described. In brief, all cell culture dishes and flasks were pre-coated with 50 μg/mL poly-l-ornithine (PLO) and 1 μg/mL fibronectin. Proliferating LUHMES cells were maintained in AdvDMEM/F12 containing L-glutamine (2 mM), N2 supplement (1x), and FGF (40 ng/mL). For pre-differentiation, the cells were replated at a density of 46,000 cells/cm^2 one day prior to the induction of differentiation (defined as the day of differentiation, Day −1). Differentiation was initiated by exchanging the culture medium for AdvDMEM/F12 supplemented with L-glutamine (2 mM), N2 supplement (1x), dibutyryl-cAMP (1 mM), tetracycline (1 µg/mL), and GDNF (2 ng/mL). After two days of differentiation (Day 2), the cells were replated (100,000 cells/cm^2) into 96-well plates. The final assay medium consisted of glucose-free AdvDMEM/F12 supplemented with galactose (18 mM), L-glutamine (2 mM), and tetracycline (1 µg/mL). One hour after replating, the cells were treated with a 10× concentrated stock solution of the test compound. Neurite outgrowth and viability were determined 24 h later, using automated high content imaging.
(§1) The image acquisition and analysis were conducted according to established protocols. The cells were stained with Hoechst H-33342 (1 µg/mL) to visualise nuclei and calcein-AM (1 µM) to label viable cell structures. Fluorescent images were acquired using an automated imaging system.

[1] = tested on: hiPSC-derived immature human dorsal root ganglia neuron-like cells; experiment: PeriTox (UKN5a) neurite outgrowth assay; type: cell-based; details: for parent/metabolite potency ratio (BMC25): listed under the metabolite
Method: PeriTox assay was performed as previously described. In brief, cryopreserved hiPSC-derived immature human dorsal root ganglia neuron-like cells were thawed and plated at a density of 100,000 cells/cm^2 into matrigel-coated 96-well plates. The cells were cultured in 75 µL PeriTox differentiation medium (PDM) consisting of 25% KSR-S and 75% N2-S media supplemented with 1.5 µM CHIR99021, 1.5 µM SU5402, and 5 µM DAPT (KSR-S: knockout DMEM with 15% serum replacement, 1x Glutamax, 1x nonessential amino acids, and […] beta-mercaptoethanol; N2-S: DMEM/F12, with 2 mM Glutamax, 0.1 mg/mL apotransferrin, 1.55 mg/mL glucose, 25 µg/mL insulin, […] putrescine, 30 nM selenium, and 20 nM progesterone). After one hour, 25 µL PDM with 4x concentrated serial dilutions of the test compounds was added to the cells.
as §1, with “system. An image analysis algorithm detected nuclei to define somatic regions, which were then excluded from the total calcein-positive area. The remaining signal was quantified as the neurite area.” for “system.”
In the first step, matched technical replicates were averaged. […] For visualisation, GraphPad Prism 9 was used. […]
Supplementary Figure S1: Comparison of data from the MitoMet test and the PeriTox test. A) Exposure scheme for the PeriTox test (UKN5a):
For testing, cryopreserved hiPSC-derived immature human dorsal root ganglia neuron-like cells were thawed and plated into 96-well plates. Cells were treated with toxicants at one h after plating. Neurite outgrowth and viability were determined at 24 h later, using automated high content imaging. B) Benchmark concentrations (BMC25) were calculated as a measure for “onset of toxicity” for the MitoMet (UKN4b; as described in Figure 1) and UKN5a assay. If no BMC could be determined, the highest tested concentration was used as surrogate endpoint. The arrows indicate the sensitivity shifts of parent vs metabolite in the respective assay. […]

[2] = tested on: hiPSC-derived neural crest-like cells; experiment: cMINC (UKN2) neural crest cell migration assay; type: cell-based, human; details: listed under the metabolite
Method: Figure 6 The transfer of the metabolisation module to the neural crest cell migration assay (cMINC). (A) A schematic of the cMINC (circular migration of neural crest cells) assay. The cells were seeded around a central stopper to create a cell-free circular area. Migration was initiated 24 h after seeding by removing the stopper. This is defined as the day of migration (DoM) 0. On DoM 1, the cells were exposed to toxicants. After 24 h of exposure, both cell migration and viability were quantified, using automated high-content imaging. (B) Compatibility of the metabolisation module (preincubation with 500 µg/mL S9 at 37 °C for 2 h) with the cMINC assay: The setup was as described in Figure 4 and as exemplified in Figure 5A. No compound was added (solvent control). The S9 mixture (at 500 µg/mL ± NADPH) was added to the normal cell culture medium of the cMINC assay (so that the addition was 10% of the total volume). Data are from three independent experiments. (C,D) The concentration-dependent effects on migration were evaluated for metabolite mixtures generated from bromethalin (C) or chlorfenapyr (D). […] The arrows indicate the direction of sensitivity shift between NADPH-dependent and -independent metabolite mixtures, with accompanying fold change values. The concentrations are given as nominal concentrations of the parent compound. Abbreviations: n.s., not significant. TEXT PRINTED IN THE PICTURE: (C) Bromethalin: x30 | (D) Chlorfenapyr: x15
The MINC assay was performed as previously described. Briefly, 96-well plates were prepared by inserting a central 2 mm diameter stopper (Platypus Technologies, Madison, WI, USA) into pre-coated wells with a composite poly-L-ornithine (PLO; 10 µg/mL), fibronectin (1 µg/mL), and laminin (1 µg/mL) matrix. […] After a further 24 h (DoM 2), cell migration and viability were assessed. […] High content imaging was performed, and data were analysed using the RingAssay V1 software (http://invitrotox.uni-konstanz.de/, accessed on 3 February 2025). […]

In the case of `O=C(c1ccccc1)c1ccccc1` [Benzophenone], the IC25 (LUHMES cells; Homo sapiens) is reported as greater than 500 µM and the “effect on peripheral neurite outgrowth” value ([1]; result in words) is reported as “neither benzophenone nor its hydroxy metabolite showed any significant effect”.
For `COC(=O)Nc1nc2ccccc2[nH]1` [Carbendazim], the IC25 (LUHMES cells; Homo sapiens) was 4.8 µM and the “parent/metabolite potency ratio (BMC25)” value [1] was 0.2.
In the case of `O=[N+]([O-])c1cc([N+](=O)[O-])c(Nc2c(Br)cc(Br)cc2Br)c(C(F)(F)F)c1` [Desmethyl-bromethalin], the “neurite area, metabolite compared to parent at equimolar concentrations” value (LUHMES cells; 40 nM, calcein-stained LUHMES cells) is reported as “clear reduction in the neurite area”, the IC25 (LUHMES cells) is reported as 0.014 µM and the “fold change between BMC25 values of parent and metabolite (potency ratio, parent divided by metabolite)” value (LUHMES cells; listed under the metabolite, >1 = metabolite more potent) is reported as 57 fold. For the same molecule, the “parent/metabolite potency ratio (BMC25)” value [1] was 3 and the “increase in potency of metabolite compared to parent (BMC25 ratio)” value [2] was 44 fold.
